Results: the supplement of paper PMC10307832

Experiments:
Test in all cases: relative viability (nuclei count vs DMSO), 5 days (fraction); higher = more cells survive
TPCA-1 + Trametinib = compound: C1=CC(=CC=C1C2=CC(=C(S2)NC(=O)N)C(=O)N)F [TPCA-1] + CC(=O)Nc1cccc(-n2c(=O)n(C3CC3)c(=O)c3c(Nc4ccc(I)cc4F)n(C)c(=O)c(C)c32)c1 [Trametinib] (partner 0.02 µM)
In short: (§1)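 Nuclei were stained with Hoechst during a one-step fixation (final 0.05% Triton X-100, 1% formaldehyde, 1 ug/ml Hoechst) carried out 5 days after dosing, then counted on 4× images. The cells, lung cancer lines in 1536-well plates, had been dosed by pin tool the day after seeding with one drug alone or a fixed anchor-drug dose plus five library-drug doses (not always all listed) in √10 steps. Relative viability is the nuclei count in treated wells divided by that in vehicle wells, and each value is the median of duplicate plates.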

[1] = compound: C1/C(=C\C2=CC=CS2)/C(=O)/C(=C/C3=CC=CS3)/C1 + O=C(c1cc(Cc2n[nH]c(=O)c3ccccc23)ccc1F)N1CCN(C(=O)C2CC2)CC1 [Olaparib] (partner 8 µM)
In short: as §1

[2] = compound: C1/C(=C\C2=CC=CS2)/C(=O)/C(=C/C3=CC=CS3)/C1 + Cc1nc(NC(=O)N2CCC[C@H]2C(N)=O)sc1-c1ccnc(C(C)(C)C(F)(F)F)c1 [Alpelisib] (partner 2 µM)
In short: as §1

TPCA-1 + Lapatinib = compound: C1=CC(=CC=C1C2=CC(=C(S2)NC(=O)N)C(=O)N)F [TPCA-1] + CS(=O)(=O)CCNCc1ccc(-c2ccc3ncnc(Nc4ccc(OCc5cccc(F)c5)c(Cl)c4)c3c2)o1 [Lapatinib] (partner 2 µM)
In short: as §1

Row | Cell Line | relative viability (TPCA-1 + Trametinib; first compound 0.04 µM) | relative viability (TPCA-1 + Trametinib; first compound 0.1265 µM) | relative viability (TPCA-1 + Trametinib; first compound 0.4 µM) | relative viability (TPCA-1 + Trametinib; first compound 1.265 µM) | relative viability (TPCA-1 + Trametinib; first compound 4 µM) | relative viability ([1]; first compound 0.2 µM) | relative viability ([1]; first compound 0.6325 µM) | relative viability ([1]; first compound 2 µM) | relative viability ([1]; first compound 6.325 µM) | relative viability ([1]; first compound 20 µM) | relative viability ([2]; first compound 0.2 µM) | relative viability ([2]; first compound 0.6325 µM) | relative viability ([2]; first compound 2 µM) | relative viability ([2]; first compound 6.325 µM) | relative viability ([2]; first compound 20 µM) | relative viability (TPCA-1 + Lapatinib; first compound 0.04 µM) | relative viability (TPCA-1 + Lapatinib; first compound 0.1265 µM) | relative viability (TPCA-1 + Lapatinib; first compound 0.4 µM) | relative viability (TPCA-1 + Lapatinib; first compound 1.265 µM) | relative viability (TPCA-1 + Lapatinib; first compound 4 µM)
1 | ChaGo-K-1 | 0.895 | 0.715 | 0.876 | 0.822 | 0.676 | 0.407 | 0.413 | 0.381 | 0.233 | 0.169 | – | – | – | – | – | – | – | – | – | –
2 | EBC-1 | – | – | – | – | – | 0.687 | 0.754 | 0.652 | 0.593 | 0.69 | 0.852 | 0.923 | 0.947 | 0.786 | 0.845 | 0.201 | 0.233 | 0.196 | 0.224 | 0.248
3 | EKVX | 0.507 | – | 0.376 | 0.216 | 0.313 | 0.884 | 0.734 | 0.951 | – | 0.821 | 0.878 | 0.85 | 0.992 | 0.626 | 0.855 | 0.217 | 0.184 | 0.241 | 0.198 | 0.205
4 | EMC-BAC-2 | 0.869 | 0.811 | 0.979 | 0.742 | 0.906 | 0.51 | 0.495 | 0.484 | 0.424 | 0.514 | 0.743 | 0.75 | 0.694 | 0.655 | 0.696 | 0.993 | 0.854 | 0.895 | 0.752 | 0.756
5 | EPLC-272H | 0.324 | 0.22 | 0.329 | 0.332 | 0.265 | 0.858 | 0.907 | 0.627 | 0.506 | 0.579 | 1.1 | 0.881 | 1.05 | 0.831 | 0.841 | 1.28 | 0.829 | 0.947 | 0.954 | 0.775
6 | H3255 | 0.728 | 0.545 | 0.62 | 0.596 | 0.519 | 0.635 | 0.59 | 0.635 | 0.509 | 0.535 | 0.759 | 0.553 | 0.661 | 0.66 | 0.704 | 0.261 | 0.24 | 0.236 | 0.219 | 0.162
7 | HARA | 0.8 | 1.11 | 0.7 | 0.63 | 0.677 | 1.11 | 0.862 | 0.944 | 0.716 | 0.83 | 0.802 | 0.78 | 0.885 | 0.598 | 0.861 | 0.744 | 0.988 | 0.791 | 0.722 | 0.691
8 | HCC-15 | 0.402 | 0.372 | 0.347 | 0.346 | 0.311 | 0.784 | 0.771 | 0.707 | 0.656 | 0.66 | 0.926 | 0.934 | 0.823 | 0.845 | 0.871 | 0.942 | 0.856 | 0.908 | 0.819 | 0.52
9 | HCC-44 | 1.09 | 0.983 | 1.09 | 0.914 | 1.02 | 0.959 | 0.985 | 0.907 | 0.896 | 0.989 | 0.751 | 0.856 | 0.813 | 0.668 | 0.799 | 0.974 | 0.961 | 1 | 0.913 | 0.904
